From ChEMBL document CHEMBL3352658 (Eur J Med Chem, 2014) come the findings set out here.

Bounds are passed on as bounds.

For assay [1], the target named is T1, Tumor necrosis factor (Homo sapiens, UniProt P01375). The assay is described as follows: Inhibition of TNFalpha in HEK293T cells transfected with plasmid hRluc/TK/ luc2P/NF-kBRE/Hygro plasmid at 30 uM after 12 hrs by Dual-glo luciferase assay system. The assay is classed as cell-based. The settings on record: HEK-293T.
Assay [2] has as its target T1, Tumor necrosis factor. The experiment in a line: Inhibition of TNFalpha in HEK293T cells transfected with plasmid hRluc/TK/ luc2P/NF-kBRE/Hygro plasmid after 12 hrs by Dual-glo luciferase assay system. The assay is classed as cell-based, HEK-293T.
The target of assay [3] is T1, Tumor necrosis factor. The assay is described as follows: Inhibition of recombinant human TNFalpha binding to TNF receptor 1-ECD at 100 uM by surface plasmon resonance-based in vitro competitive binding assay.
The target in assay [4] is T1, Tumor necrosis factor. The experiment in a line: Inhibition of TNFalpha (unknown origin) assessed as IkappaB-alpha phosphorylation in Hela cells after 15 mins by ELISA. The assay is classed as cell-based. In general terms: ELISA stands for enzyme-linked immunosorbent assay.
Assay [5] has as its target T1, Tumor necrosis factor. The experiment in a line: Inhibition of TNFalpha in HEK293T cells transfected with plasmid hRluc/TK/ luc2P/NF-kBRE/Hygro plasmid at 90 uM after 12 hrs by Dual-glo luciferase assay system. The assay is classed as cell-based. The following applies: HEK-293T.

T1 sequence (P01375 whole entry): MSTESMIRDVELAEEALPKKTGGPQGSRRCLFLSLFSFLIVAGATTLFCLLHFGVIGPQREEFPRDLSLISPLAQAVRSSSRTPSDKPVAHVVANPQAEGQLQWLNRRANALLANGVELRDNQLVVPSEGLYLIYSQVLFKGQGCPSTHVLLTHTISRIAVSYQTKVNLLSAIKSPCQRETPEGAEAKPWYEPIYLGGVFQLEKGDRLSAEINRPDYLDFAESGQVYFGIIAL

Regarding `O=S(=O)(Nc1ccc(O)c(Cl)c1)c1ccc(F)cc1`, the inhibition (as a rule, the change of the read-out against control, counted positive when it falls) was found to be 30% at Tumor necrosis factor [1] and 31% at Tumor necrosis factor [3]. In addition, the IC50 (usually the midpoint of a concentration-inhibition curve) at Tumor necrosis factor [2] (read-out: IC50) is above 100 µM.
On to `O=C1Sc2c(S(=O)(=O)Nc3ccc(O)cc3)cc(S(=O)(=O)Nc3ccc(O)cc3)c3cccc1c23`, for which the IC50 came out at 25.3 µM on Tumor necrosis factor [4] and 14 µM on Tumor necrosis factor [2] (read-out: IC50). Also, the inhibition on Tumor necrosis factor [3] was determined as 52%.
With `Cc1cccc(/N=C2/NC(=O)/C(=C/c3cc(C)n(-c4cc(C(=O)O)cc(C(=O)O)c4)c3C)S2)c1C`, at Tumor necrosis factor [3], the inhibition turned out to be 32%.
In the case of `CCOc1cc(/C=C2\C(=O)Nc3ccc(Br)cc32)cc(Cl)c1O`, the inhibition is 40% on Tumor necrosis factor [5] and 24% at Tumor necrosis factor [3].
In the case of `O=C1Nc2ccc(S(=O)(=O)Nc3ccc(O)c(Cl)c3)c3cccc1c23`, the IC50 at Tumor necrosis factor [4] came out at 45.7 µM; at Tumor necrosis factor [2] (read-out: IC50), 42.3 µM. At Tumor necrosis factor [3], the inhibition was 28%.
Regarding `CCOc1cc(C2NC(=O)NC(c3ccccc3)=C2C(C)=O)c(Br)c(Br)c1OCC(N)=O` (stereo not drawn), the inhibition on Tumor necrosis factor [3] was found to be 16%.
Regarding `O=S(=O)(Nc1cc(Cl)c(O)c(Cl)c1)c1ccc2ccccc2c1`, the figures for the inhibition on Tumor necrosis factor [1] and at Tumor necrosis factor [3] were 30% and 37%, respectively. Moreover, the IC50 at Tumor necrosis factor [2] (read-out: IC50) was above 100 µM.
For `CC(=O)Oc1ccc(C)cc1N1C(=O)c2cccc([N+](=O)[O-])c2C1=O`, the inhibition at Tumor necrosis factor [3] was determined as 68%.
Same read-out and setting: then `COc1ccc(C2Nc3ccccc3-c3nnc(SCc4ccccc4Cl)nc3O2)cc1C` (stereo not drawn), with 32%.
Consider `O=C(O)CCCNS(=O)(=O)c1ccc2c3c(cccc13)C(=O)N2`, for which the IC50 result against Tumor necrosis factor [2] (hek-293t) was “Not Active”.
Regarding `COC(=O)[C@@](NNc1ccc(C)c(C)c1)(NC(=O)c1ccc(Cl)cc1Cl)C(F)(F)F`, the inhibition at Tumor necrosis factor [3] worked out at 17%.
As to `CCc1nnc(NC(=O)CSc2nnc(-c3ccc([N+](=O)[O-])cc3)n2-c2ccc(C)cc2)s1`, the inhibition at Tumor necrosis factor [3] is 35%.
Same read-out and setting: under `Cc1ccc(C(=O)C2=C(O)C(=O)N(c3cccc(C(F)(F)F)c3)C2c2ccccc2[N+](=O)[O-])cc1` (stereo not drawn) stands 26%; under `N#CC1=C(N)Oc2n[nH]c(-c3ccccc3)c2C1c1ccc(OCC(N)=O)cc1` (stereo not drawn), 20%.
